# Measured values as given in patent US20200338115A1, “PHARMACEUTICAL COMPOSITION FOR PREVENTION OF RECURRENT URINARY TRACT INFECTION” (priority 2019, published 2020).
# Legend:
# peripheral WBC count = assay: Rat UTI model, low-dose PPS (Example 3): peripheral WBC count percentages; assay type: in vivo, SD rats; conditions: 8.5 mg/kg/day oral Day −14 to Day 0
# From the text: (§1) The purpose of the current example is to investigate effects of a reduced dosage of PPS for preventing UTI in the rat URI model. The SD rats are randomized and grouped into a control group (N=7), an UTI model group (N=10), a normal PPS dosage group (N=10), and a reduced PPS dosage group (N=5). The UTI model group, the normal PPS dosage group, and the reduced PPS dosage group are infected with UPEC on Day 1. The method of infection and the amount of UPEC being injected to the rats of the current study are the same as the UPEC infection in Example 1. […] The control group is not infected by the UPEC or treated by PPS. Urine samples and the blood samples of the rats are collected on Day 0, 3, and 7, using the same techniques and tools as described in Example 1. The collected urine samples are diluted 10, 10^2, 10^3, 10^4, and 10^5 folds, and the diluted urine samples are cultured on BSA plates and incubated for 12 hours at 37° C. UPEC colonies on the BSA plates are counted after the incubation. In FIGS. 10 and 11, the UTI model group is denoted as “UTI”, the normal PPS dosage group is denoted as “UROpre”, and the reduced PPS dosage group is denoted as “low UROpre”.
# FIG. 11 is a bar chart comparing the peripheral WBC count percentages of the control group, the reduced PPS dosage group, and the UTI model group, in accordance with an embodiment of the present disclosure. The WBC counts reflects a current urinary tract infection episode, the WBC count percentage can be a relative indicator comparing the WBC counts before the infection and after the infection. The WBC count percentages in FIG. 11 are used to examine the efficacy of the reduced PPS dosage in the rat UTI model. The WBC counts on Day 0 in the control group, the reduced PPS dosage group, and the UTI group are designated as 100% in FIG. 11. The WBC count percentages of the 3 groups are elevated on Day 1, reflecting more WBCs entering the peripheral blood after the infection. On Day 3, the WBC count percentage of the low UROpre group is about 120%, whereas the WBC count percentage of the UTI group is about 130%.
# TNF-α = assay: Rat UTI model (Example 1): Luminex assay of peripheral blood TNF-α; assay type: in vivo, Sprague-Dawley (SD) rats; conditions: PPS 30 mg/kg/day oral Day −14 to Day 0; Day 3 and Day 14
# From the text: (§2) UPEC is known as the primary cause of UTI.
# (§3) The rats are sacrificed at Day 14.
# (§4) Luminex assays are used to evaluate peripheral blood biomarkers relevant to infection or inflammation. FIG. 6 is a bar chart comparing the Luminex assay results for IL-1β in the control group, the UTI model group, and the PPS prevention group, in accordance with an embodiment of the present disclosure. IL-1β level is relevant to a current inflammation or infection, and a higher IL-1β level indicates a more severe inflammation. […] FIG. 7 is a bar chart comparing the Luminex assay results for TNF-α in the control group, the UTI model group, and the PPS prevention group, in accordance with an embodiment of the present disclosure. TNF-α is a cytokine that promotes inflammatory responses, and a higher TNF-α level indicates a more severe inflammation in the rats.
# [1] = tested on: uropathogenic Escherichia coli (UPEC); assay: Rat UTI model (Example 1): urine bacterial counts after oral PPS; assay type: in vivo, Sprague-Dawley (SD) rats
# From the text: as §2, §3
# [2] = tested on: recurrent urinary tract infection (rUTI); assay: Phase II randomized controlled trial of oral PPS for prevention of rUTI (Example 2): efficacy; assay type: in vivo, human subjects
# From the text: The current example is a multicenter, prospective, open-label, phase II, randomized controlled trial. The purpose of the current example is to investigate the effects of orally administered PPS in the prevention of rUTI in the human subjects. The study period of the current trial is 16 weeks, which is expected to cover most of the rUTI episodes.
# The human subjects in the current example are screened and recruited in the OPD. Eligible patients are 20-70 year-old female patients with confirmed UTI ≥2 times in the past 6 months, or ≥3 times in the past 12 months, and had prior antibiotics treatment for previous UTI episodes(s). The eligible patients are without lower urinary tract symptoms and completely recovered from the last UTI episode. Patients with the following criteria are also excluded: allergic reaction to PPS, undergoing surgery within 24 week in a follow-up period of the current trial, participating in any intervention study 90 days before screening, bladder instillation with hyaluronic acid within 3 months before screening, pregnancy, breast feeding, upper urinary tract infection, fever >38° C., serum WBC count greater than 12,000/mm^3, urinary catheterization within 1 week, urinary tract anomalies, interstitial cystitis, urolithiasis, renal insufficiency, cancer history, immunocompromised, organ transplant history, pelvic organ prolapse stage II or higher, post-voiding residual urine more than 100 ml, stress or urge urinary incontinence, and positive urine culture during screening. 45 patients are screened for eligibility, with only 27 patients remained and 18 patients are excluded. The screening in the current trial is defined as Visit 1.
# For analyzing results of the current study, all statistical analyses are performed using MedCalc Statistical Software version 19.0.3. The Mann-Whitney U test and Student's t-test are used to compare medians and means, respectively. Contingency tables are constructed for comparisons using a chi-square test and Fisher's exact test. The Kaplan—Meier method is used for the construction of survival curves. A log-rank test and Cox proportional hazard model are used to compare recurrence-free survival duration between groups. All tests are 2-tailed. A P-value <0.05 is considered significant.
# [3] = orally administered PPS, previous studies; cited from earlier work
# [4] = tested on: peripheral white blood cell (WBC) counts; assay: Rat UTI model (Example 1): peripheral white blood cell counts; assay type: in vivo, Sprague-Dawley (SD) rats; conditions: PPS 30 mg/kg/day oral Day −14 to Day 0
# From the text: as §2, §3
# FIG. 4 is a bar chart comparing peripheral white blood cell (WBC) counts in the control group, the UTI model group, and the PPS prevention group, in accordance with an embodiment of the present disclosure. The WBC counts in different groups reflect conditions of the UPEC infection in the rats: a higher WBC count may represent a more severe UPEC infection. […] The WBC counts in the UTI model group have remained as the highest among 3 groups on Day 1, Day 3, and Day 7.
# IL-1β = assay: Rat UTI model (Example 1): Luminex assay of peripheral blood IL-1β; assay type: in vivo, Sprague-Dawley (SD) rats; conditions: PPS 30 mg/kg/day oral Day −14 to Day 0; Day 3
# From the text: as §2, §3, §4
# [5] = pH 6; cited from earlier work
# [6] = in vivo
# Description: The 27 patients remained are randomized to a PPS group (N=13) and a control group (N=14). The PPS are orally administered to the PPS group according to a continuous daily dosing regimen of 100 mg, 3 times a day for the first 8 weeks (total administered amount is 300 mg PPS per day). Then, the dosing regimen is changed to 100 mg 2 times a day for the remaining 8 weeks (total administered amount is 200 mg PPS per day). The PPS can be taken either 1 hour before or 2 hours after meal. Any forms of UTI prophylaxis or treatment, including antibiotics, hyaluronic acid instillation, cranberry, nonsteroidal anti-inflammatory drugs, or steroids, are forbidden in the study period of the current trial. […] The patients in both groups are visited every four week from the 0th week (Visit 2), the 4th week (Visit 3), the 8th week (Visit 4), the 12th week (Visit 5), to the 16th week (Visit 6), and Visit 6 is marked as the end of the current trial.
# The patients are required to report relevant urinary tract symptoms to an investigator, during each of the visits. […] Information regarding adverse events, including grade of severity (according to National Cancer Institute Common Terminology Criteria for Adverse Events, version 5.0), timing, and their relationship with the medication assessed by the investigator, are also recorded at each of the visits. […]
# bladder epithelium = assay: Rat UTI model (Example 1): H/E staining of bladder tissue; assay type: in vivo, Sprague-Dawley (SD) rats; conditions: PPS 30 mg/kg/day oral Day −14 to Day 0; rats sacrificed at Day 14
# From the text: as §2, §3
# [7] = tested on: peripheral red blood cell (RBC) counts; assay: Rat UTI model (Example 1): peripheral red blood cell counts; conditions: PPS 30 mg/kg/day oral Day −14 to Day 0; control, UTI model and PPS prevention groups
# Description: The current example treats Sprague-Dawley (SD) rats with uropathogenic Escherichia coli (UPEC) to establish the rat UTI model. […] The UPEC used in the current example is ATCC®700336™, designation: J96 (serotype O4:K6), purchased from Food Industry Research and Development Institute of Taiwan. The UPEC is stored in trypticase soy agar/broth, and is centrifuged at 5,000 rpm for 10 minutes. Pellets of the UPEC after the centrifugation are dissolved in 10 mL sterile phosphate buffered saline (PBS). The cell density of the UPEC is adjusted to an optical density (OD600) of 1 to 1.1. This optical density is corresponded to the cell density of 8×10^7 to 2×10^8 colony forming units (CFU)/mL. The UPEC is then made into a 250 μL 0.9% N/S solution of 8×10^7 CFU for treating the rats.
# The UTI model group and the PPS prevention group are infected with the UPEC by trans-urethral catherization on Day 1. The PPS prevention group is treated with the PPS by oral gavage with a 18G stainless-steel gavage needle attached to a 3 mL tuberculin syringe from Day −14 to Day 0. The PPS dosage for the rats in the current example is 30 mg/kg/day. […] The UPEC in the LB broths and on the LB agar plates are quantified after the incubation. […]
# [8] = tested on: uropathogenic Escherichia coli (UPEC); assay: Rat UTI model, low-dose PPS (Example 3): urine bacterial counts; assay type: in vivo, SD rats; conditions: for urine bacterial counts compared with UTI model group: Day 3
# From the text: as §1
substance,measurement,setting,value
pentosan polysulfate sodium [PPS],peripheral WBC count percentage (Day 0 = 100%),peripheral WBC count; Day 1,elevated
same,peripheral WBC count percentage (Day 0 = 100%),"peripheral WBC count; Day 3, UTI group about 130%",about 120%
same,peripheral WBC count percentage (Day 0 = 100%),peripheral WBC count; Day 7,about 60%
same,peripheral WBC count percentage compared with UTI group,peripheral WBC count; Day 7,significantly lower than that of the UTI group
same,peripheral TNF-α levels compared with UTI model group,TNF-α,lower TNF-α levels than the UTI model group
same,urine bacterial counts compared with UTI model group,"[1]; PPS 30 mg/kg/day oral Day −14 to Day 0, UPEC on Day 1, Day 1, Day 3 and Day 7",lower than the urine bacterial counts in the UTI model group
same,urine bacterial counts,"[1]; PPS 30 mg/kg/day oral gavage Day −14 to Day 0, Day 0",below 10^3 CFU/mL
same,overall effect on UTI in the rats,[1]; PPS oral 30 mg/kg/day for 14 days,effectively reduces UTI
same,overall UTI recurrence free survival compared with control group (Kaplan-Meier),"[2]; 26 patients, log-rank test p=0.0004",significantly higher in the PPS group than in the control group
same,"UTI recurrence, %","[2]; PPS group N = 12, 300 mg/day for 8 weeks then 200 mg/day for 8 weeks, oral, 16 weeks, control 64.3%, p <0.001",0%
same,lower urinary tract symptoms or positive urine analysis,"[2]; PPS group, 16-week study period",none of the patients in the PPS group had lower urinary tract symptoms nor positive urine analysis
same,efficacy in preventing rUTI in the human subjects,"[2]; about 3.34 mg/kg/day, total 200 mg PPS per day, remaining 8 weeks",also therapeutically effective
same,efficacy in preventing rUTI in the human subjects,"[2]; less than 5 mg/kg/day, total 300 mg PPS per day (reference weight 60 kg), first 8 weeks",proven to be therapeutically effective
same,protective effect in preventing rUTI in the human subjects,"[2]; oral administration of PPS, conclusion of the trial",excellent protective effect
same,adverse effect: abdominal pain,[3],2%
same,adverse effect: diarrhea,[3],1-14.9%
same,adverse effect: dizziness,[3],1%
same,adverse effect: dyspepsia,[3],2%
same,adverse effect: headache,[3],1-2.9%
same,adverse effect: liver function abnormalities,[3],1-2%
same,adverse effect: nausea,[3],1.4%-7.9%
same,adverse effect: rash,[3],3%
same,adverse effect: rectal hemorrhage,[3],4%
same,peripheral WBC counts compared with UTI model group,"[4]; Day 1, Day 3 and Day 7",fewer than the WBC counts in the UTI model group
same,"peripheral WBC counts, time course",[4]; after Day 3,in steady decline after Day 3
same,peripheral IL-1β level compared with UTI model group,IL-1β,significantly lower than the UTI model group
same,solubility in water,[5],up to 50%
same,adverse effects observed in the trial,[6],none of the above adverse effects are observed
same,"complete blood counts, liver function tests and coagulant-related tests",[6],no abnormalities
same,H/E staining result of bladder tissue,bladder epithelium,fresh layer of accumulated epithelial cells
same,"peripheral RBC counts, difference among groups",[7],no significant differences
same,therapeutic effect in the rat UTI model,"[8]; 8.5 mg/kg/day orally administered PPS, 14 days",therapeutically effective
same,urine bacterial counts compared with UTI model group,[8]; normal PPS dosage 30 mg/kg/day oral Day −14 to Day 0 (UROpre),lower than the UTI model group
same,urine bacterial counts compared with UTI model group,[8]; reduced PPS dosage 8.5 mg/kg/day oral Day −14 to Day 0 (low UROpre),lower than the UTI model group
